Literature values, collected in patent US20170231227A1, “ANTIFUNGAL-GRAFTED POLYOLEFIN” (priority 2016, published 2017).

- solubility in ethanol (pure ethanol): 40 ppm
- solubility in water (water): poor
SMILES: C[C@@H]1C/C=C/C=C/C=C/C=C/[C@H](O[C@@H]2O[C@H](C)[C@@H](O)[C@H](N)[C@@H]2O)C[C@@H]2O[C@](O)(C[C@@H](O)C[C@H]3O[C@@H]3/C=C/C(=O)O1)C[C@H](O)[C@H]2C(=O)O [Natamycin, natamycin]
